Data on 1 molecule can be found in patent US8148392B2, “2-indolyl imidazo [4,5-d] phenanthroline derivatives and their use in the treatment of cancer” (Lorus Therapeutics Inc., priority 2005, dated 2012).

Read-outs that look alike come from different tables or passages of the source.

The subject of series [1] is human colon carcinoma HT-29 cells. Nature of the series: XTT cell proliferation assay, HT-29. Particulars: Homo sapiens, HT-29, XTT, read-out: IC50. The series is classed as cell-based. Summed up:
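HT-29 cells in McCoy's 5A with 10% FBS, 37° C., 5% CO2, exposed to varying compound concentrations for 6-7 days. Viable cells quantified by XTT reduction to formazan; growth inhibition expressed as IC50 (μM).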
(Formazan colour is commonly taken as a measure of viable cells.)

Series [2] has as its system panel of 60 human cancer cell lines. Nature of the series: NCI DTP in vitro anticancer screen, panel of 60 human cancer cell lines. The series is classed as cell-based. Particulars: average over human tumour cell lines of the NCI panel (FIG. 1); read-out: average GI50 (growth inhibition by 50%). On the procedure:
For example, the following methodology, which is currently employed by the NCI, can be used to assess the GI50 of a candidate compound of Formula I in the selected cancer cell lines. Briefly, cell suspensions are diluted (5000-40,000 cells per well) and 100 μL of the diluted cell suspension is added into 96-well microtiter plates. Inoculates are allowed a preincubation period of 24 h at 37° C. for stabilization. Dilutions at twice the intended test concentration of the candidate compound are added at time zero in 100 μL aliquots to the microtiter plate wells. Test compounds are generally evaluated at five 10-fold dilutions. In routine testing, the highest well concentration is usually 10E-4 M, but this may be adjusted depending on the compound being tested. The cells are incubated with the test compound for 48 h in 5% CO2 atmosphere and 100% humidity. The cells are then assayed by using the sulforhodamine B assay (see, for example, Skehan, P., et al. (1990) JNCI, J. Natl. Cancer Inst. 82, 1107-1112; and Chen, S. F., et al. (1990) Proc. Am. Assoc. Cancer Res. 31, A2644) employing a plate reader which can be used to read the optical densities.
Compounds 2 and 3 were evaluated for their antiproliferative effects in a panel of 60 human cancer cell lines as part of the in vitro anticancer screening services provided by the DTP (Developmental Therapeutics Program) of the US National Cancer Institute (NCI).
Analysis of the effects of compounds of Formula I on in vitro and in vivo cell growth inhibition were performed utilizing the methods as described in the preceding Examples. As shown in Example 12, cell growth inhibition by the parental compound 3 was screened by National Cancer Institute 60-cell line assay and leukemia, non-small cell cancer, colon cancer, renal cancer and prostate cancer panels were especially sensitive to compound 3.

The next series in a line: Solubility in water. The series is classed as physicochemical. Particulars: HCl salt of compound 2. On the procedure: A solution of 0.200 g of compound 2 (0.483 mmol) in DMF was treated with HCL(g) until no more precipitation was observed. The solid was then filtered, washed with dichloromethane and hexanes, dried in vacuum.

Broadly, the IC50 is the concentration that gives 50% inhibition. For orientation: GI50 means the concentration that inhibits growth by half. Consider `Brc1ccc2[nH]cc(-c3nc4c5cccnc5c5ncccc5c4[nH]3)c2c1` [Compound 2], for which the IC50 in series [1] (6-7 days, Table 3) was 700 nM; in series [1] (as Example 13, Table 7) it was 1.5 µg/mL. Further, the GI50 in series [2] was less than 2000 nM. Also, the solubility in water result in the series “Solubility in water” is on record as “soluble in water”.
